The target of the assay is canine TRPM8 (Canis lupus familiaris, UniProt Q1A7N1). The experiment in a line: In Vitro Canine TRPM8 Functional Assay (Ca2+ fluorescence, icilin activation). It is filed as cell-based. The note with it: for IC50: read-out: IC50; for inhibition at 0.2 µM: read-out: % Inh @ 0.2; for inhibition at 0.5 µM: compound at 0.5 μM, read-out: % Inh @ 0.5. As to the method: The functional activity of compounds of the formula (I) was determined by measuring changes in intracellular calcium concentration using a Ca^2+-sensitive fluorescent dye. The changes in fluorescent signal were monitored by a fluorescence plate reader, either a FLIPR™ (Molecular Devices) or FDSS (Hamamatsu).
At 24 hrs prior to assay, HEK293 cells stably expressing canine TRPM8 were seeded in culture medium in black wall, clear-base poly-D-lysine coated 384-well plates (BD Biosciences, NJ, USA) and grown overnight in 5% CO2 at 37° C. On assay day, growth media was removed and cells were loaded with Calcium 3 Dye (Molecular Devices) for 35 min at 37° C., under 5% CO2 and then for 25 min at room temperature and atmosphere. Subsequently, cells were tested for agonist-induced increases in intracellular Ca^2+ levels using FLIPR™ or FDSS. Cells were challenged with a compound of the Formula (I) (at varying concentrations) and intracellular Ca^2+ was measured for 5 min prior to the addition of icilin to all wells to achieve a final concentration that produces approximately an 80% maximal response. EC50 or IC50 values for compounds of the present invention were determined from eight-point dose-response studies. Curves were generated using the average of quadruplicate wells for each data point.

Setting [1] is: HEK293 cells stably expressing canine TRPM8, icilin activation, eight-point dose-response.
[2] abbreviates: compound at 0.2 μM, canine TRPM8, icilin activation.
The mark [3] stands for this setting: 0.2 μM compound, HEK293 cells stably expressing canine TRPM8, icilin activation.
[4] abbreviates: HEK293 cells stably expressing canine TRPM8, icilin activation, average of two or more determinations.
[5] abbreviates: canine TRPM8, icilin activation.

The structures appear in SMILES notation. Like-named read-outs stand apart in the source and are kept apart here.

Sequence of canine TRPM8 (Q1A7N1 1-1104): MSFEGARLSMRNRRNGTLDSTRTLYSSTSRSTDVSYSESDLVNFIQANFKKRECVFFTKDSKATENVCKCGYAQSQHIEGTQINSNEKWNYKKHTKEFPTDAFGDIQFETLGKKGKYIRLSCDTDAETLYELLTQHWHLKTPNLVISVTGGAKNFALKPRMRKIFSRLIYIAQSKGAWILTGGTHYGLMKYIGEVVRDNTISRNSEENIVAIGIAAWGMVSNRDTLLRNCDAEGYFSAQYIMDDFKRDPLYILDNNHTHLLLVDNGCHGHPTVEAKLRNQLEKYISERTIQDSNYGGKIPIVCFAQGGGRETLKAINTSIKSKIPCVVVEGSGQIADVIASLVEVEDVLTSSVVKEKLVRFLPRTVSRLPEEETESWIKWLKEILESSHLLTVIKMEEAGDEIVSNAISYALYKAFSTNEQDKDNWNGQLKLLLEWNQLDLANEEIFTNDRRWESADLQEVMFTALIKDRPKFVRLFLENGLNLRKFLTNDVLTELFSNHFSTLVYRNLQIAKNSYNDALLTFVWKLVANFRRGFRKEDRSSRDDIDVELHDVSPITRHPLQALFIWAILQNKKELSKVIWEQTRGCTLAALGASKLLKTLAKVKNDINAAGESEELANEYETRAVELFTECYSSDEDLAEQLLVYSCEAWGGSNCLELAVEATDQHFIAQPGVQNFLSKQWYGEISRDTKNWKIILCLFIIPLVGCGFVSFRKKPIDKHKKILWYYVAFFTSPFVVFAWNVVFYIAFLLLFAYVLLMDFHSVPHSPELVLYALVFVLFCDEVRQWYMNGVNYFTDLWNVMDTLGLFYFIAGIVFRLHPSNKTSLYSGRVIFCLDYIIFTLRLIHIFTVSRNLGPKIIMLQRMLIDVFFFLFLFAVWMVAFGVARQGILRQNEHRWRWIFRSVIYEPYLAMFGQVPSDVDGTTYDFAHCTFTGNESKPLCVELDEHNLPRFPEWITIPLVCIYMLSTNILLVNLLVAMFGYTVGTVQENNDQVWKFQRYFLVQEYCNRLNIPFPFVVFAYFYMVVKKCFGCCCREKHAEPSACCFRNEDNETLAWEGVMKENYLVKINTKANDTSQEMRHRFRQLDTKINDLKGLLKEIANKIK

What is called IC50 is the midpoint of a concentration-inhibition curve. On to `CC(C)c1c(N(CCC2CC2)S(=O)(=O)c2ccccc2)sc2ccccc12` [Compound 548, N-(2-Cyclopropyl-ethyl)-N-(3-isopropyl-benzo[b]thiophen-2-yl)-benzenesulfonamide], for which the half-inhibitory concentration (IC50) under setting [1] was 28.9 nM. The inhibition at 0.2 µM under setting [2] was found to be 102%.

For the compound `O=C(O)c1ccc(S(=O)(=O)N(CCOC2CCCCC2)c2sc3ccccc3c2Br)cc1` [Compound 453, N-(3-Bromo-benzo[b]thiophen-2-yl)-N-(2-(cyclohexyloxy)ethyl)-4-carboxy-benzenesulfonamide], under setting [1], the half-inhibitory concentration (IC50) was found to be 2 nM. Besides, the inhibition at 0.2 µM under setting [2] was determined as 101%.

In the case of `O=C(O)c1ccc(S(=O)(=O)N(Cc2ccc(OC(F)(F)F)cc2)c2sc3ccccc3c2C2CC2)cc1` [Compound 755, N-(3-Cyclopropyl-benzo[b]thiophen-2-yl)-N-(4-trifluoromethoxyl-benzyl)-4-carboxy-benzenesulfonamide], under setting [1], the half-inhibitory concentration (IC50) was found to be 0.9 nM. In addition, under setting [2], the inhibition at 0.2 µM came to 101%.

As for `O=C(O)c1ccc(S(=O)(=O)N(CC(F)F)c2sc3ccccc3c2Br)cc1` [Compound 276, N-(3-Bromo-benzo[b]thiophen-2-yl)-N-(2,2-difluoro-ethyl)-4-carboxy-benzenesulfonamide], the IC50 under setting [1] is 71 nM. Further, the inhibition at 0.2 µM under setting [2] worked out at 76%.

On to `O=S(=O)(c1ccc(-c2nnn[nH]2)cc1)N(CCC(F)(F)F)c1cc2ccccc2s1` [Compound 571, N-(Benzo[b]thiophen-2-yl)-N-(3,3,3-trifluoro-propyl)-4-(1H-tetrazol-5-yl)-benzenesulfonamide], for which the inhibition at 0.2 µM under setting [2] came out at 14%.

Consider `CCS(=O)(=O)N(Cc1cccc(OC)c1F)c1sc2ccccc2c1C(C)(C)O` [Compound 776, N-(2-Fluoro-3-methoxy-benzyl)-N-[3-(1-hydroxy-1-methyl-ethyl)-benzo[b]thiophen-2-yl]-ethanesulfonamide], for which, under setting [1], the concentration for half-maximal inhibition (IC50) turned out to be 6.7 nM. The inhibition at 0.2 µM under setting [2] came out at 95%.

With `O=S(=O)(c1ccccc1)N(CCCF)c1cc2ccccc2s1` [Compound 817, N-(Benzo[b]thiophen-2-yl)-N-(3-fluoro-propyl)-benzenesulfonamide], the inhibition at 0.2 µM under setting [3] was determined as 80%. The half-inhibitory concentration (IC50) under setting [4] was found to be 73 nM.

With `NCCN(c1sc2ccccc2c1Cl)S(=O)(=O)c1ccccc1` [Compound 270, N-(2-Amino-ethyl)-N-(3-chloro-benzo[b]thiophen-2-yl)-benzenesulfonamide], the IC50 under setting [1] was 338 nM. Further, under setting [5], the inhibition at 0.5 µM is 75%.

Take `Cc1c(N(Cc2cccc(OC(F)(F)F)c2)S(=O)(=O)CCC(=O)O)sc2ccccc12` [Compound 762, N-(3-Methyl-benzo[b]thiophen-2-yl)-N-(3-trifluoromethoxy-benzyl)-2-carboxy-ethanesulfonamide]: the half-maximal inhibitory concentration (IC50) under setting [1] is 25.3 nM. Besides, under setting [2], the inhibition at 0.2 µM worked out at 101%.

As to `Cc1c(N(CCC(F)(F)F)S(=O)(=O)c2ccc(-c3nsc(=O)[nH]3)cc2)sc2ccccc12` [Compound 637, N-(3-Methyl-benzo[b]thiophen-2-yl)-N-(3,3,3-trifluoro-propyl)-4-(5-oxo-4,5-dihydro-[1,2,4]thiadiazol-3-yl)-benzenesulfonamide], the 50% inhibitory concentration (IC50) under setting [1] amounted to 12.2 nM. The inhibition at 0.2 µM under setting [2] came to 104%.

Take `CCS(=O)(=O)N(Cc1c(F)cnc(F)c1F)c1sc2ccccc2c1C` [Compound 840, N-(3-Methyl-benzo[b]thiophen-2-yl)-N-(2,3,5-trifluoro-pyridin-4-ylmethyl)-ethanesulfonamide]: under setting [3], the inhibition at 0.2 µM stood at 71.1%. The half-maximal inhibitory concentration (IC50) under setting [4] is 98.1 nM.

For `Cc1c(N(Cc2ccc(F)c(C(F)(F)F)c2)S(=O)(=O)c2cccc3c2CNCC3)sc2ccccc12` [Compound 79, N-(4-Fluoro-3-trifluoromethyl-benzyl)-N-(3-methyl-benzo[b]thiophen-2-yl)-1,2,3,4-tetrahydro-isoquinoline-8-sulfonamide], under setting [2], the inhibition at 0.2 µM was 69%.

Turning to `COc1ccccc1CN(c1sc2ccccc2c1Br)S(=O)(=O)c1ccccc1` [Compound 160, N-(3-Bromo-benzo[b]thiophen-2-yl)-N-(2-methoxy-benzyl)-benzenesulfonamide], the IC50 under setting [1] came to 35.8 nM. Under setting [5], the inhibition at 0.5 µM amounted to 97%.

Regarding `CCCCN(c1cc2ccccc2s1)S(C)(=O)=O` [Compound 382, N-(Benzo[b]thiophen-2-yl)-N-(butyl)-methanesulfonamide], the inhibition at 0.2 µM under setting [2] was 17%.

`CS(=O)(=O)Nc1ccc(S(=O)(=O)N(Cc2ccc(F)c(C(F)(F)F)c2)c2cc3ccccc3s2)cc1` [Compound 652, N-(Benzo[b]thiophen-2-yl)-N-(4-fluoro-3-trifluoromethyl-benzyl)-4-methanesulfonylamino-benzenesulfonamide]: the IC50 under setting [1] worked out at 85 nM. Moreover, under setting [2], the inhibition at 0.2 µM was found to be 102%.

Take `O=C(O)c1ccc(S(=O)(=O)N(CCC2CC2)c2sc3ccccc3c2Br)c(F)c1` [Compound 709, N-(3-Bromo-benzo[b]thiophen-2-yl)-N-(2-cyclopropyl-ethyl)-2-fluoro-4-carboxy-benzenesulfonamide]: the IC50 under setting [1] was 6 nM. Moreover, under setting [2], the inhibition at 0.2 µM was 102%.

With `CCCCNS(=O)(=O)N(CCCC)c1cc2ccccc2s1` [Compound 850, N-Benzo[b]thiophen-2-yl-N,N′-bis-butyl-sulfamide], the inhibition at 0.2 µM under setting [3] stood at 28%.

Turning to `CSCCN(c1cc2ccccc2s1)S(=O)(=O)c1ccccc1` [Compound 120, N-(Benzo[b]thiophen-2-yl)-N-(2-methylsulfanyl-ethyl)-benzenesulfonamide], the IC50 under setting [1] came to 156 nM. Moreover, the inhibition at 0.2 µM under setting [2] amounted to 75%.

As for `Cc1c(N(Cc2ccc(OC(F)(F)F)cc2)S(=O)(=O)c2ccc(-c3nnn[nH]3)nc2)sc2ccccc12` [Compound 805], the inhibition at 0.2 µM under setting [3] came to 103%. Also, the IC50 under setting [4] is 2.2 nM.

`COC(=O)c1ccccc1S(=O)(=O)N(Cc1ccc(F)c(C(F)(F)F)c1)c1sc2ccccc2c1Cl` [Compound 196, N-(3-Chloro-benzo[b]thiophen-2-yl)-N-(4-fluoro-3-trifluoromethyl-benzyl)-2-carbomethoxy-benzenesulfonamide]: the IC50 under setting [1] was determined as 8 nM. In addition, under setting [2], the inhibition at 0.2 µM is 99%.

In the case of `CCCCN(c1sc2ccccc2c1Cl)S(=O)(=O)c1ccc(C2=NOS(=O)N2)cc1` (stereo not shown) [Compound 485, N-(3-Chloro-benzo[b]thiophen-2-yl)-N-(butyl)-4-(3H-[1,2,3,5]oxathiadiazole-2-oxide)-benzenesulfonamide], the concentration for half-maximal inhibition (IC50) under setting [1] was 21 nM. Besides, the “% Inh @ 0.2 (μM)” value under setting [2] stood at 96%.

In the case of `O=S(=O)(c1ccccc1)N(Cc1ccc(F)c(C(F)(F)F)c1)c1sc2ccccc2c1CN1CCCC1` [Compound 381, N-(4-Fluoro-3-trifluoromethyl-benzyl)-N-(3-pyrrolidin-1-yl-methyl-benzo[b]thiophen-2-yl)-benzenesulfonamide], the “% Inh @ 0.2 (μM)” value under setting [2] stood at 20%.

With `CC(=O)Nc1c(N(Cc2ccc(F)c(C(F)(F)F)c2)S(=O)(=O)c2ccccc2)sc2ccccc12` [Compound 509, N-{2-[Benzenesulfonyl-(4-fluoro-3-trifluoromethyl-benzyl)-amino]-benzo[b]thiophen-3-yl}-acetamide], under setting [1], the IC50 stood at 32 nM. Under setting [2], the inhibition at 0.2 µM amounted to 100%.

Regarding `CNc1ccc(S(=O)(=O)N(CCC2CC2)c2sc3ccccc3c2Br)cc1` [Compound 693, N-(3-Bromo-benzo[b]thiophen-2-yl)-N-(2-cyclopropyl-ethyl)-4-methylamino-benzenesulfonamide], the IC50 under setting [1] is 25.2 nM. For the same compound, under setting [2], the inhibition at 0.2 µM came to 103%.

On to `O=S(=O)(c1ccccc1)N(Cc1ccc(F)cc1)c1sc2ccccc2c1Br` [Compound 140, N-(3-Bromo-benzo[b]thiophen-2-yl)-N-(4-fluoro-benzyl)-benzenesulfonamide], for which, under setting [1], the IC50 worked out at 2 nM. Besides, under setting [5], the inhibition at 0.5 µM came out at 98%.

For `O=S(=O)(c1cccs1)N(Cc1ccc(F)c(C(F)(F)F)c1)c1sc2ccccc2c1Br` [Compound 184, N-(3-Bromo-benzo[b]thiophen-2-yl)-N-(4-fluoro-3-trifluoromethyl-benzyl)-thiophene-2-sulfonamide], the half-inhibitory concentration (IC50) under setting [1] was 3.9 nM. For the same compound, the inhibition at 0.5 µM under setting [5] stood at 97%.

As for `Cc1c(N(CCC(F)(F)F)S(=O)(=O)CCC(=O)O)sc2ccccc12` [Compound 604, N-(3-Methyl-benzo[b]thiophen-2-yl)-N-(3,3,3-trifluoro-propyl)-2-carboxy-ethanesulfonamide], under setting [2], the inhibition at 0.2 µM stood at 13%.

In the case of `Nc1ccc(S(=O)(=O)N(Cc2ccc(F)c(C(F)(F)F)c2)c2cc3ccccc3s2)cc1` [Compound 653, 4-Amino-N-(benzo[b]thiophen-2-yl)-N-(4-fluoro-3-trifluoromethyl-benzyl)-benzenesulfonamide], the IC50 under setting [1] was 13 nM. Further, the inhibition at 0.2 µM under setting [2] came out at 102%.

On to `Cc1c(N(CCC(F)(F)F)S(C)(=O)=O)sc2ccccc12` [Compound 364, N-(3-Methyl-benzo[b]thiophen-2-yl)-N-(3,3,3-trifluoro-propyl)-methanesulfonamide], for which, under setting [1], the IC50 was determined as 44 nM. Moreover, under setting [2], the inhibition at 0.2 µM is 77%.
